From ChEMBL document CHEMBL5550120, “SuFEx-based chemical diversification for the systematic discovery of CRBN molecular glues” (Bioorg Med Chem, 2024)
Active and inactive are the calls of the source. The calls are words filed in the database; no cut-off is given here.

Key:
MV4-11 [1] = experiment: Antiproliferative activity against wild type human MV4-11 cells assessed as reduction in cell viability measured after 3 days by ATP-dependent luminescence assay; assay type: functional, cell-based; conditions: MV4-11, 72 h
MOLT-4 [2] = experiment: Antiproliferative activity against human MOLT-4 cells harboring GSPT1 G575N mutant assessed as reduction in cell viability measured after 3 days by ATP-dependent luminescence assay; assay type: functional, cell-based; conditions: time 3.0 day
BE(2)-C [3] = experiment: Antiproliferative activity against CRBN depleted human BE2C cells assessed as reduction in cell viability measured after 3 days by ATP-dependent luminescence assay; assay type: functional, cell-based; conditions: time 3.0 day
[4] = target: T1, Protein cereblon/Eukaryotic peptide chain release factor GTP-binding subunit ERF3A (Homo sapiens, UniProt Q96SW2+P15170); experiment: Molecular glue activity at CRBN/GSPT1 in human BE2C cells harboring GSPT1 G575N mutant assessed as induction of GSPT1 degradation at 3 uM measured after 3 hrs by immunoblot analysis; assay type: cell-based
Target sequence in this assay (P15170 whole entry, looked up): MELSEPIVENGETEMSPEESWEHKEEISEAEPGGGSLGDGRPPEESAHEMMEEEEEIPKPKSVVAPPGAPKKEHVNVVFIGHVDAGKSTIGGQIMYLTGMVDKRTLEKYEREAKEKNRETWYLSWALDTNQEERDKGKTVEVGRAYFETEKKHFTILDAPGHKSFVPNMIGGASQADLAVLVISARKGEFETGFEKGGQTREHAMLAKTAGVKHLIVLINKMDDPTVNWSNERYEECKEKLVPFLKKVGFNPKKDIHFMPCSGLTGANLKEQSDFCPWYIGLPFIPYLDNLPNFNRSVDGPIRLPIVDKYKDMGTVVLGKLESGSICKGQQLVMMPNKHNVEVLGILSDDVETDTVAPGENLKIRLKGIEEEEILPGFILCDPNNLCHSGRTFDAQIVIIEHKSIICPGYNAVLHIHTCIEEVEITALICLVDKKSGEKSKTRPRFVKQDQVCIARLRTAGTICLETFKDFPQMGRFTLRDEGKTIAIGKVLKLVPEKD
Target sequence in this assay (Q96SW2 whole entry, looked up): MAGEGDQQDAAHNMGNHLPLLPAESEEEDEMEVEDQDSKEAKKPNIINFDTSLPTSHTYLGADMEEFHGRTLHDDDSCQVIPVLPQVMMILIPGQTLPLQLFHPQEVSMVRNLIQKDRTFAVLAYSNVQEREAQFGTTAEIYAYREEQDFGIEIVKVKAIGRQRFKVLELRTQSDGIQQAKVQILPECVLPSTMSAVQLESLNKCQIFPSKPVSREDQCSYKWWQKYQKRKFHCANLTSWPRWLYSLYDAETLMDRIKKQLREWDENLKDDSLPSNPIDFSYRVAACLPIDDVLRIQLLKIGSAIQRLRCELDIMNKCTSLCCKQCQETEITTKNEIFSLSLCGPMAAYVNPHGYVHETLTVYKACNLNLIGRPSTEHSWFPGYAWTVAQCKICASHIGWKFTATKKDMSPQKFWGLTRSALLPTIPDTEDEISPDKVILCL

[5] = target: T1, Protein cereblon/Eukaryotic peptide chain release factor GTP-binding subunit ERF3A; experiment: Molecular glue activity at CRBN/GSPT1 in CRBN depleted human MOLT-4 cells assessed as induction of GSPT1 degradation at 3 uM measured after 3 hrs by immunoblot analysis; assay type: cell-based
Target sequence in this assay (P15170 whole entry, looked up): as the sequence (P15170 whole entry, looked up) above
Target sequence in this assay (Q96SW2 whole entry, looked up): as the sequence (Q96SW2 whole entry, looked up) above

MV4-11 [6] = experiment: Downregulation of GSPT1 protein abundance in human MV4-11 cells at 3 uM measured after 3 hrs by proteomics analysis; assay type: functional, cell-based
MV4-11 [7] = experiment: Downregulation of GSPT2 protein abundance in human MV4-11 cells at 3 uM measured after 3 hrs by proteomics analysis; assay type: functional, cell-based
[8] = target: T1, Protein cereblon/Eukaryotic peptide chain release factor GTP-binding subunit ERF3A; experiment: Molecular glue activity at CRBN/HiBiT-tagged GSPT1 in human MV4-11 cells assessed as induction of GSPT1 degradation at 3 uM pretreated with pomalidomide at 25 uM for 1 hr followed by compound treatment and measured after 3 hrs by immunoblot analysis; assay type: cell-based
Target sequence in this assay (P15170 whole entry, looked up): as the sequence (P15170 whole entry, looked up) above
Target sequence in this assay (Q96SW2 whole entry, looked up): as the sequence (Q96SW2 whole entry, looked up) above

BE(2)-C [9] = experiment: Antiproliferative activity against human BE2C cells harboring GSPT1 G575N mutant assessed as reduction in cell viability measured after 3 days by ATP-dependent luminescence assay; assay type: functional, cell-based; conditions: time 3.0 day
[10] = target: T1, Protein cereblon/Eukaryotic peptide chain release factor GTP-binding subunit ERF3A; experiment: Molecular glue activity at CRBN/GSPT1 in human MV4-11 cells harboring GSPT1 G575N mutant assessed as induction of GSPT1 degradation at 3 uM measured after 3 hrs by immunoblot analysis; assay type: cell-based
Target sequence in this assay (P15170 whole entry, looked up): as the sequence (P15170 whole entry, looked up) above
Target sequence in this assay (Q96SW2 whole entry, looked up): as the sequence (Q96SW2 whole entry, looked up) above

[11] = target: T1, Protein cereblon/Eukaryotic peptide chain release factor GTP-binding subunit ERF3A; experiment: Molecular glue activity at CRBN/HiBiT-tagged GSPT1 in wild type human MV4-11 cells assessed as induction of GSPT1 degradation measured after 3 hrs by immunoblot analysis; assay type: cell-based
Target sequence in this assay (Q96SW2 whole entry): as the sequence (Q96SW2 whole entry, looked up) above
Target sequence in this assay (P15170 whole entry): as the sequence (P15170 whole entry, looked up) above

[12] = target: T1, Protein cereblon/Eukaryotic peptide chain release factor GTP-binding subunit ERF3A; experiment: Molecular glue activity at CRBN/HiBiT-tagged GSPT1 in human MOLT-4 cells assessed as induction of GSPT1 degradation at 3 uM pretreated with carfilzomib at 500 nM for 1 hr followed by compound treatment and measured after 3 hrs by immunoblot analysis; assay type: cell-based
Target sequence in this assay (P15170 whole entry, looked up): as above
Target sequence in this assay (Q96SW2 whole entry, looked up): as the sequence (Q96SW2 whole entry, looked up) above

[13] = target: T1, Protein cereblon/Eukaryotic peptide chain release factor GTP-binding subunit ERF3A; experiment: Molecular glue activity at CRBN/GSPT1 in CRBN depleted human BE2C cells assessed as induction of GSPT1 degradation at 3 uM measured after 3 hrs by immunoblot analysis; assay type: cell-based
Target sequence in this assay (P15170 whole entry, looked up): as the sequence (P15170 whole entry, looked up) above
Target sequence in this assay (Q96SW2 whole entry, looked up): as the sequence (Q96SW2 whole entry, looked up) above

[14] = target: T1, Protein cereblon/Eukaryotic peptide chain release factor GTP-binding subunit ERF3A; experiment: Molecular glue activity at CRBN/GSPT1 in CRBN depleted human MV4-11 cells assessed as induction of GSPT1 degradation at 3 uM measured after 3 hrs by immunoblot analysis; assay type: cell-based
[15] = target: T1, Protein cereblon/Eukaryotic peptide chain release factor GTP-binding subunit ERF3A; experiment: Molecular glue activity at CRBN/HiBiT-tagged GSPT1 in human BE2C cells assessed as induction of GSPT1 degradation at 3 uM pretreated with pomalidomide at 25 uM for 1 hr followed by compound treatment and measured after 3 hrs by immunoblot analysis; assay type: cell-based
[16] = target: T1, Protein cereblon/Eukaryotic peptide chain release factor GTP-binding subunit ERF3A; experiment: Molecular glue activity at CRBN/HiBiT-tagged GSPT1 in human BE2C cells assessed as induction of GSPT1 degradation at 3 uM pretreated with MLN4924 at 1 uM for 1 hr followed by compound treatment and measured after 3 hrs by immunoblot analysis; assay type: cell-based
MV4-11 [17] = experiment: Antiproliferative activity against CRBN depleted human MV4-11 cells assessed as reduction in cell viability measured after 3 days by ATP-dependent luminescence assay; assay type: functional, cell-based; conditions: time 3.0 day
[18] = target: T1, Protein cereblon/Eukaryotic peptide chain release factor GTP-binding subunit ERF3A; experiment: Molecular glue activity at CRBN/GSPT1 in human MOLT-4 cells harboring GSPT1 G575N mutant assessed as induction of GSPT1 degradation at 3 uM measured after 3 hrs by immunoblot analysis; assay type: cell-based
[19] = target: T1, Protein cereblon/Eukaryotic peptide chain release factor GTP-binding subunit ERF3A; experiment: Molecular glue activity at CRBN/HiBiT-tagged GSPT1 in human BE2C cells assessed as induction of GSPT1 degradation at 3 uM pretreated with carfilzomib at 500 nM for 1 hr followed by compound treatment and measured after 3 hrs by immunoblot analysis; assay type: cell-based
[20] = target: T1, Protein cereblon/Eukaryotic peptide chain release factor GTP-binding subunit ERF3A; experiment: Molecular glue activity at CRBN/HiBiT-tagged GSPT1 in human MV4-11 cells assessed as induction of GSPT1 degradation at 3 uM pretreated with MLN4924 at 1 uM for 1 hr followed by compound treatment and measured after 3 hrs by immunoblot analysis; assay type: cell-based
[21] = Selectivity index, ratio of EC50 for antiproliferative activity against human BE2C cells to EC50 for antiproliferative activity against human MOLT-4 cells; assay type: functional
BE(2)-C [22] = experiment: Antiproliferative activity against wild type human BE2C cells assessed as reduction in cell viability measured after 3 days by ATP-dependent luminescence assay; assay type: functional, cell-based; conditions: 72 h
[23] = target: T1, Protein cereblon/Eukaryotic peptide chain release factor GTP-binding subunit ERF3A; experiment: Molecular glue activity at CRBN/HiBiT-tagged GSPT1 in wild type human BE2C cells assessed as induction of GSPT1 degradation measured after 3 hrs by immunoblot analysis; assay type: cell-based
Target sequence in this assay (Q96SW2 whole entry): as the sequence (Q96SW2 whole entry, looked up) above
Target sequence in this assay (P15170 whole entry): as the sequence (P15170 whole entry, looked up) above

[24] = Selectivity index, ratio of EC50 for antiproliferative activity against human BE2C cells to EC50 for antiproliferative activity against human MV4-11 cells; assay type: functional
[25] = target: T1, Protein cereblon/Eukaryotic peptide chain release factor GTP-binding subunit ERF3A; experiment: Molecular glue activity at CRBN/HiBiT-tagged GSPT1 in human MOLT-4 cells assessed as induction of GSPT1 degradation measured after 3 hrs by immunoblot analysis; assay type: cell-based
Target sequence in this assay (Q96SW2 whole entry): as the sequence (Q96SW2 whole entry, looked up) above
Target sequence in this assay (P15170 whole entry): as the sequence (P15170 whole entry, looked up) above

MOLT-4 [26] = experiment: Antiproliferative activity against wild type human MOLT-4 cells assessed as reduction in cell viability measured after 3 days by ATP-dependent luminescence assay; assay type: functional, cell-based; conditions: MOLT-4, 72 h
MV4-11 [27] = experiment: Antiproliferative activity against human MV4-11 cells harboring GSPT1 G575N mutant assessed as reduction in cell viability measured after 3 days by ATP-dependent luminescence assay; assay type: functional, cell-based; conditions: time 3.0 day
MOLT-4 [28] = experiment: Antiproliferative activity against CRBN depleted human MOLT-4 cells assessed as reduction in cell viability measured after 3 days by ATP-dependent luminescence assay; assay type: functional, cell-based; conditions: time 3.0 day
[29] = target: T1, Protein cereblon/Eukaryotic peptide chain release factor GTP-binding subunit ERF3A; experiment: Molecular glue activity at CRBN/HiBiT-tagged GSPT1 in human MOLT-4 cells assessed as induction of GSPT1 degradation at 3 uM pretreated with pomalidomide at 25 uM for 1 hr followed by compound treatment and measured after 3 hrs by immunoblot analysis; assay type: cell-based
[30] = target: T1, Protein cereblon/Eukaryotic peptide chain release factor GTP-binding subunit ERF3A; experiment: Molecular glue activity at CRBN/HiBiT-tagged GSPT1 in human MV4-11 cells assessed as induction of GSPT1 degradation at 3 uM pretreated with carfilzomib at 500 nM for 1 hr followed by compound treatment and measured after 3 hrs by immunoblot analysis; assay type: cell-based
[31] = target: T1, Protein cereblon/Eukaryotic peptide chain release factor GTP-binding subunit ERF3A; experiment: Molecular glue activity at CRBN/HiBiT-tagged GSPT1 in human MOLT-4 cells assessed as induction of GSPT1 degradation at 3 uM pretreated with MLN4924 at 1 uM for 1 hr followed by compound treatment and measured after 3 hrs by immunoblot analysis; assay type: cell-based
[32] = target: DNA-binding protein Ikaros (Homo sapiens) (UniProt Q13422); experiment: Induction of cHiBiT-tagged IKZF1 degradation in human MV4-11 cells; assay type: cell-based
Sequence of DNA-binding protein Ikaros (Homo sapiens) (Q13422 whole entry): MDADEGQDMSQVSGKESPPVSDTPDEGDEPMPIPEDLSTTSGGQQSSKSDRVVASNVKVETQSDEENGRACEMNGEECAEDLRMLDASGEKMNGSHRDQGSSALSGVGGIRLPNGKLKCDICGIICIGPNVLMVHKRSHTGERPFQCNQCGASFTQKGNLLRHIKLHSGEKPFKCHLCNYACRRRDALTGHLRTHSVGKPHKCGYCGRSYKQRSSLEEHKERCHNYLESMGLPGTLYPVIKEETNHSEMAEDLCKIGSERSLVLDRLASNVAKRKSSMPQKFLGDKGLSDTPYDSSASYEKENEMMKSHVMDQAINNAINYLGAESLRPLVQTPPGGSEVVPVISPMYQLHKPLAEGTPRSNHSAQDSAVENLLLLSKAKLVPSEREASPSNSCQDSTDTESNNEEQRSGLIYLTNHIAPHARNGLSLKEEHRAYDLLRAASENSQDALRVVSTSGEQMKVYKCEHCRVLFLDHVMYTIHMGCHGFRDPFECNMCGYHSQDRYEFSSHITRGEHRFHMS

[33] = target: DNA-binding protein Ikaros (Homo sapiens) (UniProt Q13422); experiment: Induction of IKZF1 degradation in human MV4-11 cells at 3 uM measured after 3 hrs by immunoblot analysis; assay type: cell-based
[34] = target: DNA-binding protein Ikaros (Homo sapiens) (UniProt Q13422); experiment: Induction of IKZF1 degradation in human MV4-11 cells at 3 uM measured after 3 hrs by proteomics analysis; assay type: cell-based

Compound | EC50 (MV4-11 [1]) [nM] | Activity (MOLT-4 [2]) | Activity (BE(2)-C [3]) | Activity [4] | Activity [5] | Activity (MV4-11 [6]) | Activity (MV4-11 [7]) | Activity [8] | Activity (BE(2)-C [9]) | Activity [10] | DC50 [11] [nM] | Activity [12] | Activity [13] | Activity [14] | Activity [15] | Activity [16] | EC50 (BE(2)-C [22]) [nM] | DC50 [23] [nM] | DC50 [25] [nM] | EC50 (MOLT-4 [26]) [nM] | also measured
CCC(C)(CCNS(=O)(=O)Nc1ccc2c(c1)CN(C1CCC(=O)NC1=O)C2=O)c1ccccc1OC (stereo unspecified) | 410 | inactive | inactive | inactive | inactive | Active | Active | inactive | inactive | inactive | 700 | inactive | inactive | inactive | inactive | inactive | 42000 | 19000 | 700 | 420 | Activity (MV4-11 [17]): inactive; Activity [18]: inactive; Activity [19]: inactive; Activity [20]: inactive; Ratio EC50 [21]: ~100; Ratio EC50 [24]: ~100; Activity (MV4-11 [27]): inactive; Activity (MOLT-4 [28]): inactive; Activity [29]: inactive; Activity [30]: inactive; Activity [31]: inactive
CCCOc1ccccc1CNS(=O)(=O)Nc1ccc2c(c1)CN(C1CCC(=O)NC1=O)C2=O (stereo unspecified) | 80 | inactive | inactive | inactive | inactive | Active | Active | inactive | inactive | inactive | 60 | inactive | inactive | inactive | inactive | inactive | 18000 | 7000 | 90 | 110 | Activity [32]: inactive; Activity (MV4-11 [17]): inactive; Activity [18]: inactive; Activity [33]: inactive; Activity [19]: inactive; Activity [20]: inactive; Ratio EC50 [21]: ~100; Ratio EC50 [24]: ~100; Activity (MV4-11 [27]): inactive; Activity (MOLT-4 [28]): inactive; Activity [34]: inactive; Activity [29]: inactive; Activity [30]: inactive; Activity [31]: inactive
CC(C)CCOc1ccccc1OCCNS(=O)(=O)Nc1ccc2c(c1)CN(C1CCC(=O)NC1=O)C2=O (stereo unspecified) | 40 | inactive | inactive | inactive | inactive | Active | Active | inactive | inactive | inactive | 120 | inactive | inactive | inactive | inactive | inactive | 13000 | 14000 | 90 | 60 | Activity (MV4-11 [17]): inactive; Activity [18]: inactive; Activity [19]: inactive; Activity [20]: inactive; Ratio EC50 [21]: ~100; Ratio EC50 [24]: ~100; Activity (MV4-11 [27]): inactive; Activity (MOLT-4 [28]): inactive; Activity [29]: inactive; Activity [30]: inactive; Activity [31]: inactive
Cc1ccc(NC(=O)NCc2ccc3c(c2)CN(C2CCC(=O)NC2=O)C3=O)cc1Cl (stereo unspecified) | < 1 | – | – | – | – | – | – | – | – | – | < 1 | – | – | – | – | – | < 5 | < 1 | < 1 | < 1 | –
Cc1cccc(Cl)c1OCCNS(=O)(=O)Nc1ccc2c(c1)CN(C1CCC(=O)NC1=O)C2=O (stereo unspecified) | 190 | inactive | inactive | inactive | inactive | Active | Active | inactive | inactive | inactive | 280 | inactive | inactive | inactive | inactive | inactive | 12000 | 8000 | 280 | 180 | Activity [32]: Active; Activity (MV4-11 [17]): inactive; Activity [18]: inactive; Activity [33]: Active; Activity [19]: inactive; Activity [20]: inactive; Ratio EC50 [21]: ~100; Ratio EC50 [24]: ~100; Activity (MV4-11 [27]): inactive; Activity (MOLT-4 [28]): inactive; Activity [34]: inactive; Activity [29]: inactive; Activity [30]: inactive; Activity [31]: inactive
